Measurements as given in patent US11149271B2, “Method and pharmaceutical composition for treating cancer” (Macau University of Science and Technology, priority 2018, dated 2021).

Assays:
[1] = test system: Taxol-resistant HCT-8 cells (HCT-8T); assay: MTT cytotoxicity assay on Taxol-resistant HCT-8 cells; type: cell-based; conditions: 50 nM, 22 bp (FIG. 5F)
Experimental: (§1) A2780, Taxol-resistant A2780, HCT-8, Taxol-resistant HCT-8 and Taxol-resistant A549 cell lines were cultured in RPMI Medium 1640 medium containing 10% FBS and 1% penicillin/streptomycin. HepG2 and MCF-7 cell lines were cultured in Minimum Essential medium containing 10% FBS and 1% penicillin/streptomycin. All cell lines above were cultured at humidified atmosphere containing 5% CO2 at 37° C.
(§2) In the cytotoxicity assay, exponentially growing cells of each cancer cell line were plated in 96-well microplate at a density of 5000 cells per well in 100 μL of culture medium and allowed to adhere for 24 h before treatment. Serial concentrations of RNA molecules obtained in Example 1 and 2 in a mixture containing a gene delivery carrier, i.e. Lipofectamine™ RNAiMAX Transfection Reagent (Thermo Fisher Scientific, U.S.A.) were then added to the cells. After treated for 48 h, MTT solution (50 μL per well, 1 mg/mL solution) was added to each well and incubated for 4 h at 37° C. Subsequently, 200 μL dimethyl sulfoxide (DMSO) were added and the optical densities of the resulting solutions were calorimetrically determined at 570 nm using a SpectraMax 190 microplate reader (Molecular Devices, Sunnyvale, Calif., U.S.A). Dose-response curves were obtained, and the IC50 values were calculated by GraphPad Prism 5 (GraphPad, La Jolla, Calif., USA). Each experiment was carried out for three times. IC50 results were expressed as means±standard deviation.

[2] = test system: HCT-8 cells; assay: MTT cytotoxicity assay on HCT-8 cells; type: cell-based; conditions: for dose dependence of growth and proliferation inhibition: 6.25-100 nM (FIG. 6G, 6H); for IC50: 48 h, MTT
Experimental: as §1, §2

[3] = test system: Taxol-resistant A549T cells; assay: MTT cytotoxicity assay on Taxol-resistant A549 cells; type: cell-based, human
Experimental: as §1
as §2, with “Each experiment was carried out for three times.” left out

[4] = test system: Taxol-resistant A2780T cells; assay: MTT cytotoxicity assay on Taxol-resistant A2780 cells; type: cell-based, human
Experimental: as §1
as §2, with “Each experiment was carried out for three times.” left out

[5] = test system: A2780 cells; assay: MTT cytotoxicity assay on A2780 cells; type: cell-based, human; conditions: for IC50 / inhibition of growth and proliferation (cell viability): 48 h; for IC50: MTT; for inhibition of growth and proliferation (cell viability): 25 nM tRNA, RNAiMAX transfection, A2780 ovarian cancer cells (FIG. 3)
Experimental: as §1, §2

[6] = test system: A2780 cells tumor xenografts; assay: In vivo antitumor effect, A2780 xenograft in nude mice; parameters: species or system BALB/c nude mice; conditions: 2.4 mg/kg with 1% atelocollagen, tumor-adjacent injection once a week; for inhibition of tumor growth (ratio of tumor volume): 28 days (FIG. 7A); for body weight (ratio of weight changes): 28 days (FIG. 7B)
Experimental: Animal model having xenograft cancer was set. Female BALB/c nude mice (6-8-week old) were purchased from Shanghai SLAC Laboratory Animal Co., Ltd. and maintained at 25° C. with free access to food and water in a special pathogen-free laboratory of the animal environment facilities. The animal experiments were performed in compliance with institutional animal care guidelines and according to committee-approved protocol. To generate tumor xenografts, A2780 cells (4.0×10^6) were injected subcutaneously in 100 μL of 1640 medium through a 27-gauge needle into the armpit of 8-week-old BALB/c nude mice. After 4-5 weeks after tumors had reached 60-70 mm^3, the tumor-bearing nude mice were treated with synthesized tRF with atelocollagen (Koken Co., Ltd., Tokyo, Japan). The concentration of atelocollagen was 1%, and tumor-adjacent injection was performed by one dose of HC11 or HC30 (RNA molecule of SEQ ID NO: 1 or SEQ ID NO: 9) (GenePharma Co., Ltd., Shanghai, China) at concentration of 2.4 mg/kg with atelocollagen once a week. A control group was set up in which vehicle was administered to the mice. A Taxol group for administering 1 mg/kg Taxol to the mice was also set as a comparison. The entire treatment lasted for 28 days.
Tumor diameters were measured at maximum length and maximum width with digital calipers. And the tumor volume was calculated by the formula: volume=(width)^2×length/2. The data were statistically analyzed using GraphPad Prism 5 (GraphPad, La Jolla, Calif., USA). […] In other words, the RNA molecules of the present invention are effective in treating cancer cells both in vivo and in vitro.

[7] = test system: MCF-7 cells; assay: MTT cytotoxicity assay on MCF-7 cells; type: cell-based, human; conditions: 25 nM tRNA, 48 h, RNAiMAX transfection, MCF-7 breast cancer cells (FIG. 3)
Experimental: as §1, §2

[8] = test system: HepG2 cells; assay: MTT cytotoxicity assay on HepG2 cells; type: cell-based, human; conditions: 25 nM tRNA, 48 h, RNAiMAX transfection, HepG2 liver cancer cells (FIG. 3)
Experimental: as §1, §2

Molecule | cytotoxic effect (cell viability) [1] | inhibition of growth and proliferation (cell viability) [7] | inhibition of growth and proliferation (cell viability) [5] | inhibition of growth and proliferation (cell viability) [8] | other results
HC18: double-stranded RNA, sense SEQ ID NO: 13, antisense SEQ ID NO: 113, 22 bp, 5′-t of tRNA^Leu(CAA) (sense GCCUUGAUGGUGAAAUGGUAGA; antisense UCUACCAUUUCACCAUCAAGGC; RNA, backbone and methylation of C not given here; synthetic double-stranded RNA) | useful in treating cancer which is resistant against Taxol | – | – | – | –
HC36: double-stranded RNA, sense SEQ ID NO: 29, antisense SEQ ID NO: 129, 22 bp, 5′-t of tRNA^Asn(GUU) (sense CCUCAGUAGCUCAGUGGUAGAG; antisense CUCUACCACUGAGCUACUGAGG; RNA, backbone and methylation of C not given here; synthetic double-stranded RNA) | useful in treating cancer which is resistant against Taxol | – | – | – | dose dependence of growth and proliferation inhibition [2]: dose-dependent effect; IC50 [2]: 8.2 nM
HC34: double-stranded RNA, sense SEQ ID NO: 25, antisense SEQ ID NO: 125, 22 bp, 5′-t of tRNA^Cys(GCA) (sense GGCGACAUAGCCAAGUGGUAAG; antisense CUUACCACUUGGCUAUGUCGCC; RNA, backbone and methylation of C not given here; synthetic double-stranded RNA) | useful in treating cancer which is resistant against Taxol | – | – | – | –
HC39: double-stranded RNA, sense SEQ ID NO: 35, antisense SEQ ID NO: 135, 22 bp, 3′-t of tRNA^Met(CAU) (sense GGUUCAAAUCCCGUCUCCGCAA; antisense UUGCGGAGACGGGAUUUGAACC; RNA, backbone and methylation of C not given here; synthetic double-stranded RNA) | useful in treating cancer which is resistant against Taxol | – | – | – | –
HC37: double-stranded RNA, sense SEQ ID NO: 31, antisense SEQ ID NO: 131, 22 bp, 3′-t of tRNA^Asn(GUU) (sense GGUUCAAAUCCUAUUUGAGGAG; antisense CUCCUCAAAUAGGAUUUGAACC; RNA, backbone and methylation of C not given here; synthetic double-stranded RNA) | useful in treating cancer which is resistant against Taxol | – | – | – | dose dependence of growth and proliferation inhibition [2]: dose-dependent effect; IC50 [2]: 9.3 nM
HC11: double-stranded RNA, sense SEQ ID NO: 1, antisense SEQ ID NO: 101, 22 bp, 5′-t of tRNA^His(GUG) (sense GCGGACGUAGCCAAGUGGUCCA; antisense UGGACCACUUGGCUACGUCCGC; RNA, backbone and methylation of C not given here; synthetic double-stranded RNA) | – | – | – | – | dose dependence of growth and proliferation inhibition ([3]; A549T cells, 6.25-200 nM (FIG. 6E)): dose-dependent effect; IC50 ([3]; Taxol-resistant A549T cells, 48 h, MTT): 87.3 nM; dose dependence of growth and proliferation inhibition ([4]; A2780T cells, 6.25-200 nM (FIG. 6C)): dose-dependent effect; IC50 ([4]; Taxol-resistant A2780T cells, 48 h, MTT): 32.3 nM; dose dependence of growth and proliferation inhibition ([5]; A2780 cells, 6.25-100 nM (FIG. 6A)): dose-dependent effect; IC50 ([5]; A2780 cells): 31 nM; inhibition of tumor growth (ratio of tumor volume) [6]: effective in inhibiting the growth of the tumor; body weight (ratio of weight changes) [6]: maintaining a relative constant body weight
HC30: double-stranded RNA, sense SEQ ID NO: 9, antisense SEQ ID NO: 109, 22 bp, 5′-t of tRNA^Trp(CCA) (sense GCGCUCUUAGUUCAGUGCGGUA; antisense UACCGCACUGAACUAAGAGCGC; RNA, backbone and methylation of C not given here; synthetic double-stranded RNA) | – | – | – | – | inhibition of tumor growth (ratio of tumor volume) [6]: effective in inhibiting the growth of the tumor; body weight (ratio of weight changes) [6]: maintaining a relative constant body weight
tRNA^Leu(CAA): tRNA isolated from Taxus chinensis (Pilger) Rehd. var. mairei, 84 mer (nucleic acid, expressed or natural sequence, tRNA isolated from Taxus chinensis (Pilger) Rehd. var. mairei, 84 mer) GCCUUGAUGGUGAAAUGGUAGACACGCGAGACUCAAAAUCUCGUGCUAAACAGCGUGGAGGUUCGAAUCCUCUUCAAGGCACCA | – | capable of inhibiting the growth and proliferation | capable of inhibiting the growth and proliferation | capable of inhibiting the growth and proliferation | –
tRNA^Glu(UUC): tRNA isolated from Taxus chinensis (Pilger) Rehd. var. mairei, 76 mer (nucleic acid, expressed or natural sequence, tRNA isolated from Taxus chinensis (Pilger) Rehd. var. mairei, 76 mer) GCCCCUAUCGUCUAGUGGCCCAGGACAUCUCUCUUUCAAGGAGGCAACGGGGAUUCGAUUUCCCCUAGGGGUACCA | – | capable of inhibiting the growth and proliferation | capable of inhibiting the growth and proliferation | capable of inhibiting the growth and proliferation | –
tRNA^Trp(CCA): tRNA isolated from Taxus chinensis (Pilger) Rehd. var. mairei, 75 mer (nucleic acid, expressed or natural sequence, tRNA isolated from Taxus chinensis (Pilger) Rehd. var. mairei, 75 mer) GCGCUCUUAGUUCAGUGCGGUAGAACGCAGGUCUCCAAAACCUGAUGCCGUAGGUUCAAAUCCUACAGAGCGCCA | – | capable of inhibiting the growth and proliferation | capable of inhibiting the growth and proliferation | capable of inhibiting the growth and proliferation | IC50 ([5]; A2780 cells): ~14.3 nM
tRNA^His(GUG): tRNA isolated from Taxus chinensis (Pilger) Rehd. var. mairei, 78 mer (nucleic acid, expressed or natural sequence, tRNA isolated from Taxus chinensis (Pilger) Rehd. var. mairei, 78 mer) GCGGACGUAGCCAAGUGGUCCAAAGGCAGUGGAUUGUGAAUCCACCACGCGCGGGUUCAAUCCCCGUCGUUCGCCCCA | – | capable of inhibiting the growth and proliferation | capable of inhibiting the growth and proliferation | capable of inhibiting the growth and proliferation | –
tRNA^Arg(ACG): tRNA isolated from Taxus chinensis (Pilger) Rehd. var. mairei, 77 mer (nucleic acid, expressed or natural sequence, tRNA isolated from Taxus chinensis (Pilger) Rehd. var. mairei, 77 mer) GGGCCUGUAGCUCAGAGGAUUAGAGCACGUGGUUGCGAACCACGGUGUCGGGGGUUCGAAUCCCUCCUCGCCCACCA | – | capable of inhibiting the growth and proliferation | capable of inhibiting the growth and proliferation | capable of inhibiting the growth and proliferation | –
